Data taken from patent publication US20200268864A1, “CANCER VACCINE COMPOSITIONS AND METHODS FOR USING SAME TO TREAT CANCER” (Dana-Farber Cancer Institute, Inc., priority 2017, published 2020).
“Also recorded” adds a separate entry of the source.

Columns and labels:
[1] = system: STING pathway in BMDCs co-cultured with ID8 cells; assay: Co-culture of BMDCs with drug-treated WT or Brca1-null ID8 cells; assay type: cell-based, mouse; conditions: co-cultured with drug-treated Brca1-null ID8 cells
Experimental: Brca-1 deficient ID8 cells were generated using a CRISPR double nickase plasmid. ID8 cells cultured in a 6-well plate were transfected with 2 μg/well of BRCA1 double nickase plasmid (sc419362-NIC, Santa Cruz Biotechnology) or control double nickase plasmid (SC-437281, Santa Cruz Biotechnology) using lipofectamine 3000 (Invitrogen). 48 hrs post-transfection, cells were passaged onto a 10 cm plate. After 24 h, puromycin (3 μg/mL) was added to the culture for selection. Puromycin resistant cells were selected and expanded. Due to a lack of a reliable mouse BRCA1 antibody for Western blot, cells were analyzed by DNA sequencing to confirm the disruption of functional Brca1 allele. To generate ID8 tumors, cultured ID8 cells were harvested and resuspended in serum free DMEM. Cells were then mixed with Matrigel (Corning). A total volume of 0.1 ml containing 5×10^6 ID8 cells and 40% Matrigel were injected subcutaneously into the flank of C57BL/6J mice.
Bone marrow cells were isolated from FVB/NJ mice and cultured in RPMI-1640 containing 10% FBS and 20 ng/ml GM-CSF. BMDCs (bone marrow derived dendritic cells) were harvested for in vitro co-culture assay on day 7 to day 10. About 3×10^5 PBM or PPM tumor cells were cultured in a 6-well plate for 24 hr. and then treated with DMSO or olaparib. […]

PPM cells = assay: Cytosolic dsDNA (PicoGreen) and micronuclei staining, PPM cells; assay type: cell-based, mouse; conditions: 2.5 μM, 24 h
Experimental: PBM and PPM cells were cultured on chambered cell culture slides (BD Falcon). Cells were treated with 2.5 μM olaparib or vehicle control (DMSO) for 24 hours. Following the treatment, cells were incubated with culture media containing PicoGreen double-stranded DNA stain (200-fold dilution, Life Technologies). After one-hour incubation, cells were fixed with 4% paraformaldehyde in PBS (Santa Cruz Biotechnology) for 10 minutes. Cells were then washed twice with PBS and stained with 300 nM DAPI (Thermo Fisher Scientific) for 10 minutes. Coverslips were mounted using ProLong Diamond Antifade Mountant (Thermo Fisher Scientific). Staining was imaged using a Leica SP5X laser scanning confocal microscope.

O=C(c1cc(Cc2n[nH]c(=O)c3ccccc23)ccc1F)N1CCN(C(=O)C2CC2)CC1 [olaparib, Olaparib]
p-TBK1+p-IRF3+ and IFN-β (STING pathway activation) in wild-type BMDCs [1]: Increased; also recorded: activation of STING pathway occurred
cytosolic dsDNAs and micronuclei (PPM cells): not
